Measurements from paper PMC9714921 (PLOS Pathogens, 2022).
“And” between values parts separate entries of the source, which are not always exact repeats. Equal entries are not always repeated. Where two headings read alike, the source gives them in different places.

Experiments:
Tzc-ACR-16 = Tzc-ACR-16 (Thelazia callipaeda, UniProt A0A158RD20); experiment: cell-based; format: cell-based
Experimental: (§1) cRNA for oocyte injection was prepared with the mMESSAGE mMACHINE T7 kit following manufacturers protocol (Ambion, USA). Concentration was determined using a Nanodrop spectrophotometer. Desired subunit combinations with associated accessory proteins were mixed and diluted with nuclease-free water to a final concentration of 250 ng/uL for each construct.
(§2) Adult female X. laevis oocyte extraction was performed in accordance with the McGill University Animal Use Protocol 2015–7758 following standard protocol. Briefly, frog ovary lobes were placed in a Ca^2+-free OR2 solution (82 mM NaCl, 2 mM KCl, 1 mM MgCl2, 5 mM HEPES buffer, pH 7.3) and manually divided into clusters of <10 oocytes with thin tweezers followed by a 90-minute incubation in 10 mg/mL collagenase type II (Sigma-Aldrich, USA). Oocytes were washed in Ca^2+-free OR2 and placed ND96 solution (NaCl 96 mM, KCl 2 mM, CaCl2 1.8 mM, MgCl2 1 mM and HEPES 5 mM, pH 7.3) supplemented with sodium pyruvate 2.5 mM [86] and incubated at 18°C until cRNA injection. Oocytes were injected with 50 nL (12.5 ng of each injected gene) of the desired cRNA subunit and accessory protein combination mix with the NanojectII (Drummond Scientific, USA). Following injection, oocytes were incubated in ND96 buffer at 18°C until electrophysiology. All electrophysiology was conducted two days post-injection, except for the expression analysis assay in which oocytes were measured every day after injection for three consecutive days.
All drugs were dissolved in recording solution (NaCl 100 mM, KCl 2.5 mM, CaCl2 1 mM, HEPES 5 mM, pH 7.3) to a stock concentration of 10 mM and diluted to their final recording concentrations. Oxantel and bephenium were first dissolved in DMSO to ensure a final recording concentration contained less than 0.1% DMSO. For agonist profiling, all drugs were diluted to a concentration of 100 μM.
Oocytes were placed individually in an RC3Z chamber (Harvard Apparatus, USA) submerged in recording solution (NaCl 100 mM, KCl 2.5 mM, CaCl2 1 mM, HEPES 5 mM, pH 7.3). The RC3Z chamber was connected to a perfusion system containing recording solution and ligand solutions. Pulled glass capillaries (World Precision Instruments, USA) were filled with 3M KCl and the tips clipped and checked for appropriate resistance (between 0.5 and 5 MΩ). A 3M KCl agar bridge grounded the oocyte bath chamber. Measurements were made using an Axon Axoclamp 900A amplifier with Digidata1550M. […] Ligand solutions were applied to the oocytes with an approximate flow rate of 1.2 m/s and current responses measured. Oocytes were exposed to the ligand solution until a distinct current peak was observed followed by a wash with the recording solution until current returned to baseline for a minimum of 10 seconds until the next ligand exposure. For BAPTA-AM exposed oocytes, oocytes were incubated in 100 μM BAPTA-AM for four hours prior to electrophysiology recording. Data was analyzed using Clampex 9.2 (Axon Instruments, USA) and statistical analysis and graphs produced in Prism (GraphPad version 9.1). T-tests were used to compare responses with error bars representing standard error. For concentration-response curves, individual oocyte current response to the different ligand concentrations were normalized to the response obtained with 300 μM. Data was fit using the Graphpad “log(agonist) vs normalized response–variable slope” equation, with 95% confidence intervals being reported. […] For examples of oocyte responses, recordings were filtered in Clampfit using the lowband pass at 40 Hz cutoff.

[1] = biological target: Asu-ACR-16-bmaICL chimera (Ascaris suum; Brugia malayi, UniProt A0A4E9FSR7+F1KYJ9); format: cell-based, A. suum (B. malayi ICL); details: listed as acetylcholine
Experimental: (§3) B. malayi acr-16 and accessory proteins ric-3, unc-50, unc-74 and molo-1 were cloned from adult female B. malayi cDNA received as a gift from Dr. T. Geary using the primers described in S1 Table. B. malayi eat-18 was prepared from two overlapping oligonucleotide primers. Other subunits were synthesized from their predicted genome sequence (Gene Universal, USA) (S2 Table). […] All sequences were cloned into the pTD2 oocyte expression vector. Asu-ACR-16 and Tzc-ACR-16 chimeras were constructed using appropriate restriction enzymes, reciprocal exchange through ligation and confirmed by sequencing (McLab, USA).
as §1, §2
All drugs were dissolved in recording solution (NaCl 100 mM, KCl 2.5 mM, CaCl2 1 mM, HEPES 5 mM, pH 7.3) to a stock concentration of 10 mM and diluted to their final recording concentrations. […]
Oocytes were placed individually in an RC3Z chamber (Harvard Apparatus, USA) submerged in recording solution (NaCl 100 mM, KCl 2.5 mM, CaCl2 1 mM, HEPES 5 mM, pH 7.3). […] Ligand solutions were applied to the oocytes with an approximate flow rate of 1.2 m/s and current responses measured. […] Data was analyzed using Clampex 9.2 (Axon Instruments, USA) and statistical analysis and graphs produced in Prism (GraphPad version 9.1). […]

T. muris N-AChR = details: read-out: EC50 μM ACh; accessory protein Ric-3; ref [35]; cited from earlier work
Tzc-ACR-16-REM = experiment: Voltage-clamp electrophysiology, coding-sequence modified ACR-16 in oocytes; format: cell-based, T. callipaeda; details: B. malayi ric-3 co-injected; agonist not named in the legend (ACh by the matching native values)
Experimental: as §3, §1
Adult female X. laevis oocyte extraction was performed in accordance with the McGill University Animal Use Protocol 2015–7758 following standard protocol. […] All electrophysiology was conducted two days post-injection, except for the expression analysis assay in which oocytes were measured every day after injection for three consecutive days. […]

[2] = co-injected: Bma-ric-3 (reference condition)

Sequence of Tzc-ACR-16 (A0A158RD20 entry or part of it): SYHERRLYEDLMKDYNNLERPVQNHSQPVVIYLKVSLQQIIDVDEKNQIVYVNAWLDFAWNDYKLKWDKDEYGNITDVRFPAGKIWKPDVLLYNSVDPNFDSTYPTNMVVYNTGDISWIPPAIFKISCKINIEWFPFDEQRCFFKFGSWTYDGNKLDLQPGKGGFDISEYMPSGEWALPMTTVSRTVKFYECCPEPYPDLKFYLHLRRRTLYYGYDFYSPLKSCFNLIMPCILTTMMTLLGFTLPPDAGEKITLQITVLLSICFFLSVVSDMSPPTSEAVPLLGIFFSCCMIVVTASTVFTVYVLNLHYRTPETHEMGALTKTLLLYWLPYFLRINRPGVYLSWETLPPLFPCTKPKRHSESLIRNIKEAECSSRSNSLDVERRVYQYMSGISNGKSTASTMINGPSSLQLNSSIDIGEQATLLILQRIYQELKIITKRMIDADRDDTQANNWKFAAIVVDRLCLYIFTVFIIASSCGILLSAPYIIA

Structure (SMILES): CC(=O)OCC[N+](C)(C)C [ACh, acetylcholine]
- EC50 (Tzc-ACR-16): 17.4 µM
- response to 100 μM acetylcholine normalized to Day 3 response (Tzc-ACR-16; Day 1 post-injection): 7 ± 1%
- response to 100 μM acetylcholine normalized to Day 3 response (Tzc-ACR-16; Day 2 post-injection): 47 ± 12%
- current response to 100 μM acetylcholine (Tzc-ACR-16; No accessory protein): 0 ± 0 nA
- current response to 100 μM acetylcholine (Tzc-ACR-16; No accessory protein, listed as acetylcholine): 0 ± 0 (n=15) nA
- current response to 100 μM acetylcholine (Tzc-ACR-16; [2]): 818 ± 112 nA
- current response to 100 μM acetylcholine (Tzc-ACR-16; co-injected: Bma-ric-3 (reference condition), listed as acetylcholine): 818 ± 112 (n=13) nA
- current response to 100 μM acetylcholine (Tzc-ACR-16; co-injected: Bma-ric-3 + Bma-eat-18): 791 ± 119 (n=8) ns nA
- current response to 100 μM acetylcholine (Tzc-ACR-16; co-injected: Bma-ric-3 + Bma-molo-1): 660 ± 76 (n=15) ns nA
- current response to 100 μM acetylcholine (Tzc-ACR-16; co-injected: Bma-ric-3 + Bma-unc-50 + Bma-unc-74): 367 ± 43 nA
- current response to 100 μM acetylcholine (Tzc-ACR-16; co-injected: Bma-ric-3 + Bma-unc-50 + Bma-unc-74 + Bma-eat-18): 964 ± 101 (n=15) ns nA
- current response to 100 μM acetylcholine (Tzc-ACR-16; co-injected: Bma-ric-3 + Bma-unc-50 + Bma-unc-74, listed as acetylcholine): 367 ± 43 (n=15) nA
- current response to 100 μM acetylcholine (Tzc-ACR-16; co-injected: Bma-ric-3 + Cel-emc-6): 720 ± 70 (n=13) ns nA
- current response to 100 μM acetylcholine (Tzc-ACR-16; co-injected: Bma-ric-3 + Cel-nra-2 + Cel-nra-4): 1263 ± 88 nA
- current response to 100 μM acetylcholine (Tzc-ACR-16; co-injected: Bma-ric-3 + Cel-nra-2 + Cel-nra-4, listed as acetylcholine): 1263 ± 88 (n=15) nA
- current response to 100 μM acetylcholine (Tzc-ACR-16; co-injected: Hco-ric-3): 400–600 nA
- current response to 100 μM acetylcholine (Tzc-ACR-16; co-injected: Hco-ric-3, listed as acetylcholine): 563 ± 39 nA and 563 ± 39 (n=13) nA
- current response to 100 μM acetylcholine ([1]; No accessory protein): 22 ± 4 (n=14) nA
- current response to 100 μM acetylcholine [1, 2]: 3021 ± 444 nA and 3021 ± 128 (n=12) nA
- current response to 100 μM acetylcholine ([1]; co-injected: Bma-ric-3 + Cel-nra-2): 2181 ± 99 (n=14) nA
- EC50 (T. muris N-AChR): 31.1 ± 0.3 µM
- current response (Tzc-ACR-16-REM): 587 ± 415 nA
